Laboratory results taken from patent US11592438B2, “Device and method for force phenotyping of cells for high-throughput screening and analysis” (THE REGENTS OF THE UNIVERSITY OF CALIFORNIA, priority 2014, dated 2023).
No end group written: not given here.

How the values were obtained:
[1] = tested on: primary human airway smooth muscle cells; test: Pattern contraction / force generation screening of airway smooth muscle cells in 96 well plate; type: cell-based; details: for contraction of ASM cells (pattern deflection): ASM cells exposed to the compound
Text: The image processing software 36 identifies all instances of a given molecular pattern 16 in an image stack and determines how many cells (e.g., 0, 1, or 2+) are adhered to each pattern 16 based on images of those cells 11 with stained nuclei. A MATLAB script opens the image files and pairs the stained nuclei images (e.g., DAPI images) with the fluorescent images of the patterns 16 (e.g., FITC images). The image processing software 36 calculates characteristic pixel length(s) of a given pattern 16 for the cases of no cells adhered and one (1) cell adhered. The ‘FITC’ images may be linearly scaled up with, for example, the MATLAB function ‘imresize’ to improve resolution of these measurements. For those patterns with zero cells adhered thereto, the center of each pattern 16 may be determined using binary center-of-mass calculations. For those patterns 16 with one (1) cell adhered thereto, a series of binary dilation and erosion operations, followed by a binary center-of-mass calculation on patterns is performed. The erosion/dilation procedure is used to remove the potential asymmetry in the pattern 16 arising from cell-induced deformations that would otherwise impact the location of the center of mass. Patterns 16 with two or more nuclei are not analyzed. For each processed pattern 16 (those that are crosses or “X” shaped), the diagonal distance in pixels is measured between the calculated center and the bright edge of the pattern 16 in each direction as illustrated in FIG. 10. […] These measurements are stored, converted to microns based on the magnification used (typically 10×). These lengths are normalized to the median of those measured in patterns 16 with no cells (nominally 0 pixel deformations which is used as a control) and a relative distribution plot for patterns with one (1) cell is generated (see FIG. 8). Cropped images of each pattern 16 screened by the image processing software 36 in a given location and the images of the corresponding cell nuclei on those patterns 16 are saved and may be reviewed if an execution error is suspected. FIG. 8 illustrates examples of cropped DAPI and FITC images.
FIGS. 6A and 6B illustrate another embodiment of the invention. In this embodiment, a substrate 40 such as a plate having apertures 42 formed therein (non-tapered) is adhered to the layer 12 such that individual wells 44 are formed over the surface of the layer 12 with each well 44 containing a plurality of fluorescent patterns 16. […]
These patterns 16 are then used as the controls. For example, similarly shaped patterns with no cells 11 thereon may have their respective dimensions measured and a baseline established that is representative of no deflection in the pattern 16. […]

[2] = tested on: HeLa cells; test: Dose-response force phenotyping of HeLa cells in well-based embodiment; type: cell-based, human; details: increased concentration, FIG. 12A
Text: The image processing software 36 identifies all instances of a given molecular pattern 16 in an image stack and determines how many cells (e.g., 0, 1, or 2+) are adhered to each pattern 16 based on images of those cells 11 with stained nuclei. A MATLAB script opens the image files and pairs the stained nuclei images (e.g., DAPI images) with the fluorescent images of the patterns 16 (e.g., FITC images). The image processing software 36 calculates characteristic pixel length(s) of a given pattern 16 for the cases of no cells adhered and one (1) cell adhered. The ‘FITC’ images may be linearly scaled up with, for example, the MATLAB function ‘imresize’ to improve resolution of these measurements. For those patterns with zero cells adhered thereto, the center of each pattern 16 may be determined using binary center-of-mass calculations. […] Patterns 16 with two or more nuclei are not analyzed. For each processed pattern 16 (those that are crosses or “X” shaped), the diagonal distance in pixels is measured between the calculated center and the bright edge of the pattern 16 in each direction as illustrated in FIG. 10. […] These lengths are normalized to the median of those measured in patterns 16 with no cells (nominally 0 pixel deformations which is used as a control) and a relative distribution plot for patterns with one (1) cell is generated (see FIG. 8). […]

Molecule: O=S(=O)(c1cccc2c(I)cccc12)N1CCCNCC1 [ML-7]
- relaxation of smooth muscle contraction (reduction in deflection amount) ([1]; added after contraction by acetylcholine, enodthelin-1 or histamine, FIG. 11A): shown to relax smooth muscle contraction

Molecule: NCCc1c[nH]cn1 [histamine]
- contraction of ASM cells (pattern deflection) ([1]; FIG. 11A): contraction

Molecule: enodthelin-1 (CSCSSLMDKECVYFCHLDIIW; ends and bridges not checked; cysteine pairing not given here; UniProt P05305 53-73, looked up) [contractile stimulus for ASM cells]
- contraction of ASM cells (pattern deflection) ([1]; FIG. 11A): contraction

Molecule: CC(C)(C)NCC(O)c1ccc(O)c(CO)c1 (centres unmarked) [albuterol]
- relaxation of ASM cells ([1]; added after contraction in response to histamine, FIG. 11B): relaxation

Molecule: Cc1ccc2c(c1)C(=O)C1(O)CCN(c3ccccc3)C1=N2 (centres unmarked) [blebbistatin]
- deflection as function of concentration [2]: less deflection
